Literature values in US20140371418A1, “BIOLOGICAL SYNTHESIS OF P-AMINOBENZOIC ACID, P-AMINOPHENOL, N-(4-HYDROXYPHENYL)ETHANAMIDE AND DERIVATIVES THEREOF” (pAromatics, LLC, priority 2012, published 2014).

## Nc1ccc(C(=O)O)cc1 [PABA, p-aminobenzoic acid]
other
  solubility of PABA in water: 0.072 M and about 10 g/L
Bacteria and fungi
  inhibition of growth of bacteria and fungi: inhibits growth
